Data published in patent publication US12396996B2, “Compounds, pharmaceutical compositions, and methods of their use in reversing cancer chemoresistance” (priority 2019, dated 2025).

What follows are compounds tested on HMLE-SNAIL spheroids (assay: 3-D tumor spheroid assay (Sytox/DAPI staining)). Conditions: Sytox staining.
Type: cell-based, human
Source text: FIGS. 1F-1I show the results of a 3-D tumor spheroid assay formed by the chemotherapy-resistant breast cancer cell line, HMLE-SNAIL. […] Tumor spheroids are a model of real in vivo tumors, as they form a 3-D cell mass in which the hypoxic and often nutrient depleted microenvironment at the center of the tumor is enriched with mesenchymal, chemotherapy-resistant TIC cells. […] By staining spheroids with Sytox, which stains dead cells green, and DAPI, which stains the nuclei of all cells (living or dead), total fraction of dead cells is calculated. Also, the location of dead cells within the sphere is visualized with Sytox (green) staining. The results of FIGS. 1F-1I indicate that chaetocin a selective and potent killer of inner cells of the spheroids, enriched with mesenchymal, chemotherapy-resistant TIC cells, compared to other compounds tested. FIGS. 1J-1K show the results of a tumorsphere assay performed with TICs grown on serum-free, non-adherent culture conditions. […] The results of FIGS. 1J-1K indicate that chaetocin is effective in eliminating TICs in a dose dependent-manner.
To determine whether chaetocin affects TIC death in a tumor-like environment, 3-D tumor spheroid assays were performed in the presence or absence of chaetocin. Tumor spheroids are a model of a real tumor, as they form a 3-D cell mass similar to tumors in vivo. The local microenvironment of a spheroid recapitulates many of the in vivo properties of tumor. Importantly, the hypoxic and often nutrient depleted microenvironment at the center of the tumor is favorable for converting epithelial, non-TIC, chemotherapy-sensitive cancer cells into mesenchymal, TIC-rich, chemotherapy-resistant cells. […] Pharmacological agents were added and cell viability was calculated by staining cells with Sytox, which stains dead cells green, and DAPI, which stains the nuclei of all cells (living or dead). to provide the total cell number. Using this method, the total fraction of dead cells was calculated and compared between different drug conditions. More importantly, the location of dead cells within the sphere is visualized with Sytox (green) staining. FIGS. 1G-1I show fluorescence images of tumor spheroids under control conditions (no treatment; FIG. 1G), under treatment with various experimental chemotherapeutic agents (Y-27632, LY-450139, and IWP-L6 (Wnt); FIG. 1H), and with chaetocin treatment (FIG. 1I). […] This family of kinases are thought to be important for survival of TIC cells. IWP-L6 is an inhibitor of Wnt pathway—a pathway important for TIC cell survival and formation. LY-450139 is a NOTCH pathway inhibitor. NOTCH is also important for TIC cell viability and survival. […]
With CC(C)[C@H](O)C(=O)N[C@@H](C)C(=O)N[C@@H]1C(=O)N(C)CCc2ccccc21 [LY-450139] the “location of dead cells within spheroid” value was “mostly result in death of cells on the exterior of the spheroid”.
C[C@@H](N)[C@H]1CC[C@H](C(=O)Nc2ccncc2)CC1 [Y-27632] was tested, and the “location of dead cells within spheroid” value was “mostly result in death of cells on the exterior of the spheroid”.
With O=C(CSc1nc2c(c(=O)n1-c1ccccc1)SCC2)Nc1ccc(-c2ccccc2)cn1 [IWP-L6] the “location of dead cells within spheroid” value was “mostly result in death of cells on the exterior of the spheroid”.
